Measured values: US20140100156A1 (SANOFI, priority 2012, published 2014)

Experiments:
[1] = format: physicochemical; conditions: pH 4.5
Experimental: Prior to the testing of solubility and stability of a peptide batch, its content was determined. Therefore, two parameters were investigated, its purity (HPLC-UV) and the amount of salt load of the batch (ion chromatography). Since synthesized peptides contain primarily trifluoroacetate anions, only anion chromatography was performed.
. Therefore, solutions from solid samples were prepared in different buffer systems with a concentration of 1.0 mg/mL compound based on the previously determined content. HPLC-UV was performed after 2 h of gentle agitation from the supernatant, which was obtained by 20 min of centrifugation at 4000 rpm.
This analysis also served as starting point (t0) for the stability testing.
Instrument: Agilent 1100, column: X-Bridge C18 3.5 μm 2.1×150 mm (Waters), eluent: A: H20+500 ppm TFA/B: Methanol, flow: 0.55 mL/min, gradient: 0-5 min: 10-60% B; 5-15 min: 60-99% B; detection: 214 nm.

human GLP-1 receptor = molecular target: T1, human GLP-1 receptor (Homo sapiens, UniProt P43220); assay: cAMP response (HTRF) of HEK-293 cells stably expressing human GLP-1 receptor; format: cell-based; conditions: Table 5, read-out: EC50 hGLP-1R
T1 construct: expressed in transfected cells; host or cells: HEK-293
T1 sequence (P43220 24-463): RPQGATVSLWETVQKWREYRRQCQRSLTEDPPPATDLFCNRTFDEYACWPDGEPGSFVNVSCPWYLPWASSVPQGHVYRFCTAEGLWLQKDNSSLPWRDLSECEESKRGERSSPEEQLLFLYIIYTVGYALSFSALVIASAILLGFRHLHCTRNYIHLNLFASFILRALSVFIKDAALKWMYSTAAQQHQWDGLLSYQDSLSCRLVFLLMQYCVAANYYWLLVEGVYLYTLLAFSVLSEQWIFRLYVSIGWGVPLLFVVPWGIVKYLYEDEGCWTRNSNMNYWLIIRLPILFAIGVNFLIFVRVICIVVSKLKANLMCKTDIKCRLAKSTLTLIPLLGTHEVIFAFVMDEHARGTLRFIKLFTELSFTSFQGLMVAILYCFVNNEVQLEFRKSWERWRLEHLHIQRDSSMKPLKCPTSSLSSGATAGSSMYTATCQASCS
Experimental: (§1) cAMP content of cells was determined using a kit from Cisbio Corp. (cat. no. 62AM4PEC) based on HTRF (Homogeneous Time Resolved Fluorescence). For preparation, cells were split into T175 culture flasks and grown overnight to near confluency in medium (DMEM/10% FBS). Medium was then removed and cells washed with PBS lacking calcium and magnesium, followed by proteinase treatment with accutase (Sigma-Aldrich cat. no. A6964). Detached cells were washed and resuspended in assay buffer (1×HBSS; 20 mM HEPES, 0.1% BSA, 2 mM IBMX) and cellular density determined. […] For measurement, 25 μl of test compound in assay buffer was added to the wells, followed by incubation for 30 minutes at room temperature.

human glucagon receptor = molecular target: T2, human glucagon receptor (Homo sapiens, UniProt P47871); assay: cAMP response (HTRF) of HEK-293 cells stably expressing human glucagon receptor; format: cell-based; conditions: Table 5, read-out: EC50 hGlucagon-R
T2 construct: expressed in transfected cells; host or cells: HEK-293
T2 sequence (P47871 26-477): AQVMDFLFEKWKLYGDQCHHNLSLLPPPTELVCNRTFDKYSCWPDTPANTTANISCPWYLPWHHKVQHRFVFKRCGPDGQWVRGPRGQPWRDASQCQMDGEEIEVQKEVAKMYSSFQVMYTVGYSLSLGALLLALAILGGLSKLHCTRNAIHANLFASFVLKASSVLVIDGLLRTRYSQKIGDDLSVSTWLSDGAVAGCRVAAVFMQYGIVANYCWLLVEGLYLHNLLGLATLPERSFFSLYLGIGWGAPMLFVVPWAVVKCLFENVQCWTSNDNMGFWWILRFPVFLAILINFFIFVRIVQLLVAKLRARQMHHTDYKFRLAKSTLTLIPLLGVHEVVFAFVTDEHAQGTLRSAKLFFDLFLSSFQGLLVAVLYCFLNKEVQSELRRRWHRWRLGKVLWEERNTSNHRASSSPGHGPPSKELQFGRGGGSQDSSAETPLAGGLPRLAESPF
Experimental: as §1

CCCCCCCCCCCCCCCC(=O)N[C@@H](CCC(=O)NCCCC[C@H](NC(=O)[C@H](C)NC(=O)[C@H](C)NC(=O)[C@H](CCC(N)=O)NC(=O)CNC(=O)[C@H](CCC(=O)O)NC(=O)[C@H](CC(C)C)NC(=O)[C@H](Cc1ccc(O)cc1)NC(=O)[C@H](CO)NC(=O)[C@H](CO)NC(=O)[C@@H](NC(=O)[C@H](CC(=O)O)NC(=O)[C@H](CO)NC(=O)[C@@H](NC(=O)[C@H](Cc1ccccc1)NC(=O)[C@@H](NC(=O)CNC(=O)[C@H](CCC(=O)O)NC(=O)[C@H](C)NC(=O)[C@@H](N)Cc1cnc[nH]1)[C@@H](C)O)[C@@H](C)O)C(C)C)C(=O)N[C@@H](CCC(=O)O)C(=O)N[C@@H](Cc1ccccc1)C(=O)N[C@H](C(=O)N[C@@H](C)C(=O)N[C@@H](Cc1c[nH]c2ccccc12)C(=O)N[C@@H](CC(C)C)C(=O)N[C@H](C(=O)N[C@@H](CCCNC(=N)N)C(=O)NCC(=O)N[C@@H](CCCNC(=N)N)C(=O)NCC(=O)O)C(C)C)[C@@H](C)CC)C(=O)O [compound 195]
Solubility pH4.5 [1]: 0 mg/ml

CCCCCCCCCCCCCCCC(=O)N[C@@H](CCC(=O)NCCCC[C@H](NC(=O)[C@H](CCC(N)=O)NC(=O)[C@H](CCCCN)NC(=O)[C@H](CO)NC(=O)[C@H](CC(C)C)NC(=O)[C@H](CC(=O)O)NC(=O)[C@H](CO)NC(=O)[C@@H](NC(=O)[C@H](Cc1ccccc1)NC(=O)[C@@H](NC(=O)CNC(=O)[C@H](Cc1c[nH]cn1)NC(=O)[C@H](CO)NC(=O)[C@@H](N)Cc1c[nH]cn1)[C@@H](C)O)[C@@H](C)O)C(=O)N[C@@H](CCC(=O)O)C(=O)N[C@@H](CO)C(=O)N[C@@H](CCCNC(=N)N)C(=O)N[C@@H](CCCNC(=N)N)C(=O)N[C@@H](C)C(=O)N[C@@H](CCC(N)=O)C(=O)N[C@@H](CC(=O)O)C(=O)N[C@@H](Cc1ccccc1)C(=O)N[C@H](C(=O)N[C@@H](CCC(=O)O)C(=O)N[C@@H](Cc1c[nH]c2ccccc12)C(=O)N[C@@H](CC(C)C)C(=O)N[C@@H](CCCCN)C(=O)N[C@@H](C)C(=O)NCC(=O)NCC(=O)N1CCC[C@H]1C(=O)N[C@@H](CO)C(=O)N[C@@H](CO)C(=O)NCC(=O)N[C@@H](C)C(=O)N1CCC[C@H]1C(=O)N1CCC[C@H]1C(=O)N1CCC[C@H]1C(=O)N[C@@H](CO)C(N)=O)[C@@H](C)CC)C(=O)O [compound 208]
EC50 (human GLP-1 receptor): 2 pM | EC50 (human glucagon receptor): 1.3 pM
